From US6359005B1, “Method for the treatment of mania and bipolar disorder” (Warner-Lambert Company, priority 1998, dated 2002) come the findings set out here.

Each structure is given as a SMILES string.

One series is described as follows: Metabolism in the body. The following applies: in vivo.
In series [1] the test system is healthy subjects and patients suffering from anxiety. As to the kind of experiment: Studies of healthy subjects and patients suffering from anxiety. It is filed as in vivo, human. The text has this: This is a novel use for pregabalin which would not be obvious to a medical practitioner of ordinary skill.
This effect will be beneficial in acute mania and will also lead to reducing the risk for onset of a new episode of mania in a predisposed individual. Thus, the prophylactic use of pregabalin for bipolar disorder is also taught.

Series [2] in a line: Toxicity / tolerability of the compound. The following applies: in vivo.

On to `CC(C)C[C@H](CN)CC(=O)O` [Pregabalin, (S)-3-(aminomethyl)-5-methylhexanoic acid], for which the “Metabolism in the body” value in “Metabolism in the body” was “not metabolized in the body”. The “Effects noted in subjects (sedation, calming)” value in series [1] (healthy subjects and patients suffering from anxiety) is “sedative and calming effects”. The Effect on sleep entry in series [1] (human, in vivo) was “enhance sleep”. In addition, the Tolerability entry in series [2] is given as “well-tolerated”.
